Experimental data reported in article PMC11365967 (Nature Communications, 2024).

Target: T1, CCR6 (Homo sapiens, UniProt P51684)
T1 sequence (P51684 1-374): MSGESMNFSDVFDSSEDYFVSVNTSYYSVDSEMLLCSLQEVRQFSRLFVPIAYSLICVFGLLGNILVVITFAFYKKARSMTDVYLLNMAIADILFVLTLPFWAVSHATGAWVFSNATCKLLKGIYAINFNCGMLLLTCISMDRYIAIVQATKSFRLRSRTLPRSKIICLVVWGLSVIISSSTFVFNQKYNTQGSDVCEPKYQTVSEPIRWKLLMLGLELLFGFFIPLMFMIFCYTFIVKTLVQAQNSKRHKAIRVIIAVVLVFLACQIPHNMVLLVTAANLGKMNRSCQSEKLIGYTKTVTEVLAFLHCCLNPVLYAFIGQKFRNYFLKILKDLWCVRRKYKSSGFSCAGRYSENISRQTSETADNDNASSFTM
Assay: CCL20-mediated CCR6+ human T cell chemotaxis assay
Type: cell-based

activity on CCR6 | pEC50, CCL20-induced CCR6+ human T cell chemotaxis (mean ± s.d., n = 5) | EC50 (read-out: EC50, CCL20-induced CCR6+ human T cell chemotaxis, n = 5) [pM] | Compound
neither OXM3 nor OXM4 are active |  |  | O=C1COC(CNC(=O)C2(c3ccccc3)CC2)CN1C1Cc2ccccc2C1 (stereo not shown) [OXM4]
neither OXM3 nor OXM4 are active |  |  | CC(C)(C(=O)NCC1CN(C2Cc3ccccc3C2)C(=O)CO1)c1ccc(Cl)cc1 (stereo not shown) [OXM3]
 | 9.7 ± 0.9 | 190 | CCL20: cognate chemokine ligand (agonist) of CCR6 (Peprotech)
